From US20260207514A1, “Clofazimine Mini-Tablets for Treatment of Tuberculosis in Pediatrics” (Via Therapeutics, LLC, priority 2022, published 2026)
Converted amounts (≈) assume the structure as drawn. Where two headings read alike, the source gives them in different places.

Assays:
physchem = assay type: physicochemical; conditions: thermodynamic from solid, read-out: CFZ saturation solubility
[1] = Stress testing of micronized CFZ with excipient blends (compatibility, HPLC assay and related substances); assay type: physicochemical
Description: Clofazimine degradation was assessed using the high pressure liquid chromatography (HPLC) method published in the United States Pharmacopeia monograph for the drug (U.S.P., 2021) The mobile phase consisted of a 65:35 mixture of acetonitrile and an aqueous buffer consisting of 4.5 g/L sodium dodecyl sulfate, 1.7 g/L tetrabutylammonium hydrogen sulfate and 21.8 g/L Na2HPO4 adjusted to pH 3.0. Flow rate was 1.0 mL/min and infection volume was 20 μL. A LiChromspher® RP-8 100 column (250×4.6, 5 μm) (Millipore Sigma) was used. Measurements were performed using an Agilent 1100 HPLC with diode array detector set at 280 nm. […] Hydrophobic PTFE 0.22 μm filters were used for sample filtration prior to analysis.
Stress testing of micronized CFZ in combination with commercially available tableting excipient blends was performed to establish potential mechanisms of drug degradation and streamline excipient selection for mini-tablet preparation. Two different blends were assessed: Prosolv® EasyTab SP (JRS Pharma) and Ludipress® (BASF).
Additionally, Eudragit® E PO was assessed, as a potential candidate for functional coating of the mini-tablets to prevent CFZ release in the saliva and subsequent staining of the mouth. Binary mixtures of micronized CFZ and excipient blends and micronized CFZ and Eudragit E PO were prepared at 1:1 weight ratios. Blends of CFZ with Prosolv EasyTab SP, Ludipress, or Eudragit E PO were left open or in closed HPDE vials and stored for 18 days at 70° C./20% relative humidity (RH) or 70° C./75% RH, which was the thermal equivalent of 6 months of storage. As a control, micronized CFZ alone and each excipient blend alone were stored open at each condition.
HPLC analysis was performed on day 0 for CFZ alone and CFZ with each excipient, as well as on day 18 for the same samples at each temperature and humidity condition. Assay values (% recovery) for all samples was determined by comparing peak area to a reference standard and correcting for sample water content measured by Karl Fischer titration method, and related substances were reported by relative retention time (RRT) to the reference CFZ peak.

[2] = 1 mg/kg per day, average 105.6 days, average age 5.8 years; cited from earlier work
[3] = Particle size distribution of milled powder by laser diffraction; assay type: physicochemical; conditions: jet-milled powder, RODOS 4 bar
Description: Clofazimine (CFZ) (Midas Pharma GmbH) was micronized by Lonza Group AG using a 10-inch spiral jet mill at 3 kg/hr feed rate and 100 psi grinding pressure. Particle size distribution of the milled powder was determined using a laser diffractor (HELOS, Sympatec GmbH) with RODOS dry powder disperser set at 4 bar dispersion pressure and 20% rotation.

SMILES: CC(C)/N=c1\cc2n(-c3ccc(Cl)cc3)c3ccccc3nc-2cc1Nc1ccc(Cl)cc1 [CFZ, clofazimine]
- solubility (physchem; fassgf or other biorelevant, in FaSSGF): 0.092 ± 0.004 µg/mL (≈ 0.194 µM)
- solubility (physchem; fassgf or other biorelevant, in FeSSGF): 20.1 ± 1.86 µg/mL (≈ 42.5 µM)
- solubility (physchem; fessif, in FeSSIF): 14.9 ± 1.5 µg/mL (≈ 31.5 µM)
- Impurity (% Area) RRT 0.82 ([1]; 70 C./20% RH, Open, 18 days): 0.113 % Area
- Impurity (% Area) RRT 0.88 ([1]; 70 C./20% RH, Open, 18 days): 0.117 % Area
- Impurity (% Area) RRT 0.82 ([1]; 70 C./75% RH, Open, 18 days): 0.096 % Area
- Impurity (% Area) RRT 0.88 ([1]; 70 C./75% RH, Open, 18 days): 0.126 % Area
- Impurity (% Area) RRT 0.94 ([1]; 70 C./75% RH, Open, 18 days): <0.05 % Area
- Impurity (% Area) RRT 0.82 ([1]; Initial (day 0)): 0.096 % Area
- Impurity (% Area) RRT 0.88 ([1]; Initial (day 0)): 0.109 % Area
- adverse effects [2]: limited to skin discoloration and gastrointestinal symptoms
- X10 diameter [3]: 0.66 μm
- X50 diameter [3]: 1.47 μm
- X90 diameter [3]: 3.50 μm
